In ChEMBL document CHEMBL4330064, “Phytoestrogens and their synthetic analogues as substrate mimic inhibitors of CYP1B1” (Eur J Med Chem, 2019):

How the values were obtained:
[1] = molecular target: T1, Cytochrome P450 1A1 (Homo sapiens, UniProt P04798); test: Inhibition of human CYP1A1 using 7-Ethoxyresorufin as substrate after 15 mins in presence of NADP+ by EROD assay; type: ADME
[2] = molecular target: T2, Cytochrome P450 1B1 (Homo sapiens, UniProt Q16678); test: Inhibition of human CYP1B1 using 7-Ethoxyresorufin as substrate after 30 mins in presence of NADP+ by EROD assay
T2 sequence (Q16678 whole entry): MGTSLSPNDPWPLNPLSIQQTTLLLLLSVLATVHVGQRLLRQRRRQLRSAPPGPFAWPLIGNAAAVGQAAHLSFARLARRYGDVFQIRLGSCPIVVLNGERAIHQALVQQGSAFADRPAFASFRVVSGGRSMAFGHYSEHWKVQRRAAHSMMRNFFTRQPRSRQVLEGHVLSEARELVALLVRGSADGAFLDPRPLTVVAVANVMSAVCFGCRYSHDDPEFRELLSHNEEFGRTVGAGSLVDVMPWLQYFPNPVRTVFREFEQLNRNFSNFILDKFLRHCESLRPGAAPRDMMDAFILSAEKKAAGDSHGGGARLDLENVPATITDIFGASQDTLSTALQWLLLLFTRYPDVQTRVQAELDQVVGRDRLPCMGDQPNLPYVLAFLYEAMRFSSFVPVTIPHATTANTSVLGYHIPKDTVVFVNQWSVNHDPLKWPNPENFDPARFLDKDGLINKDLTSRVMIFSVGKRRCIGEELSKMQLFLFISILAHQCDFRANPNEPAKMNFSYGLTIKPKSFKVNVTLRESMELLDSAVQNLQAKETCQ

[3] = molecular target: T3, Cytochrome P450 1A2 (Homo sapiens, UniProt P05177); test: Inhibition of human CYP1A2 using 7-Ethoxyresorufin as substrate after 50 mins in presence of NADP+ by EROD assay; type: ADME
T3 sequence (P05177 whole entry): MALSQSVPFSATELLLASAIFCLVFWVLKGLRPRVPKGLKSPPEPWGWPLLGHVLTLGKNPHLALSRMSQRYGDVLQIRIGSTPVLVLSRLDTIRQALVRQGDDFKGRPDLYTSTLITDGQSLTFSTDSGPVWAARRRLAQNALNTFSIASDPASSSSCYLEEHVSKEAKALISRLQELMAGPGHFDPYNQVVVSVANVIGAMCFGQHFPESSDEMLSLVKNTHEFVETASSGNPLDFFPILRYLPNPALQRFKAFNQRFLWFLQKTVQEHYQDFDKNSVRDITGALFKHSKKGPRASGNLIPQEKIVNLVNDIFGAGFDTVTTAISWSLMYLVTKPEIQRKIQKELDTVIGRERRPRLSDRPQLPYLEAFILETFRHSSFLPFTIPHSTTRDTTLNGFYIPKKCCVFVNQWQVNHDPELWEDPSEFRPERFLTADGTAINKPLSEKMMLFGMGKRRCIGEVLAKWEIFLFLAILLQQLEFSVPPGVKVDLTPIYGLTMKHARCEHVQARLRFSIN

[4] = molecular target: T1, Cytochrome P450 1A1; test: Inhibition of human CYP1A1 using ethoxyresorufin as substrate by MROD assay; type: ADME
[5] = molecular target: T2, Cytochrome P450 1B1
Description: Inhibition of human CYP1B1 by EROD assay

[6] = molecular target: T2, Cytochrome P450 1B1; test: Mixed type inhibition of human CYP1B1 by EROD assay
[7] = molecular target: T1, Cytochrome P450 1A1; test: Inhibition of human CYP1A1 using ethoxyresorufin as substrate by EROD assay; type: ADME
[8] = molecular target: T2, Cytochrome P450 1B1; test: Inhibition of CYP1B1 in human MCF7 cells assessed as reduction in TCDD-induced CYP1B1-mediated EROD activity by EROD assay; type: cell-based
[9] = molecular target: T2, Cytochrome P450 1B1; test: Inhibition of CYP1B1 in human MCF7 cells assessed as reduction in DMBA-induced CYP1B1-mediated EROD activity by EROD assay; type: cell-based
[10] = molecular target: T2, Cytochrome P450 1B1; test: Inhibition of […] CYP1B1 expressed in Escherichia coli DH5alpha cell membranes coexpressing human NADPH-cytochrome P450 reductase using 7-Ethoxyresorufin as substrate preincubated for 3 mins followed by NADPH addition measured after 10 mins by EROD assay
[11] = molecular target: T1, Cytochrome P450 1A1; test: Inhibition of […] CYP1A1 expressed in Escherichia coli DH5alpha cell membranes coexpressing human NADPH-cytochrome P450 reductase using 7-Ethoxyresorufin as substrate preincubated for 3 mins followed by NADPH addition measured after 10 mins by EROD assay; type: ADME
[12] = molecular target: T3, Cytochrome P450 1A2; test: Inhibition of […] CYP1A2 expressed in Escherichia coli DH5alpha cell membranes coexpressing human NADPH-cytochrome P450 reductase using 7-Ethoxyresorufin as substrate preincubated for 3 mins followed by NADPH addition measured after 10 mins by EROD assay; type: ADME
[13] = molecular target: T1, Cytochrome P450 1A1; test: Inhibition of human CYP1A1 by EROD assay; type: ADME
[14] = molecular target: T2, Cytochrome P450 1B1; test: Inhibition of human CYP1B1 expressed in Escherichia coli DH5alpha cell membranes coexpressing human NADPH-cytochrome P450 reductase using 7-Ethoxyresorufin as substrate by EROD assay
[15] = molecular target: T2, Cytochrome P450 1B1; test: Inhibition of CYP1B1 in human HepG2 cells; type: cell-based

T1 sequence (P04798 whole entry): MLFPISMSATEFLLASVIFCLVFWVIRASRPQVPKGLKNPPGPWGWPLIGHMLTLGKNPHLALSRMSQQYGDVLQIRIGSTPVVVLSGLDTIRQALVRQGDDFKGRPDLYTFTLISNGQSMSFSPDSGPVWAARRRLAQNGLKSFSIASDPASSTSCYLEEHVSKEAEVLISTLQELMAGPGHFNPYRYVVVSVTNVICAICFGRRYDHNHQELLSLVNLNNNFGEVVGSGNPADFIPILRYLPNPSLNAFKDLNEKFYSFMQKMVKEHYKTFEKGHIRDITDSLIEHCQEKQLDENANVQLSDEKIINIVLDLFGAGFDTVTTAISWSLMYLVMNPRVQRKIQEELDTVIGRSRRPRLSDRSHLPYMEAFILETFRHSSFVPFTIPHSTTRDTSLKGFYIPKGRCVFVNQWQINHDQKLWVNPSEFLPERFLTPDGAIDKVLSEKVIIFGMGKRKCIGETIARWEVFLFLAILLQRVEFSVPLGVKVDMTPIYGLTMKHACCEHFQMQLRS

Row | SMILES | INH [10] [µM] | INH [11] [µM] | INH [12] [µM] | other results
1 | COc1cc2c(=O)cc(-c3ccc(F)cc3)[nH]c2c2c(OC)cccc12 | – | – | – | IC50 [1]: 10.5 nM; IC50 [2]: 3.9 nM; IC50 [3]: 190 nM
2 | Oc1ccc(/C=C/c2cc(O)cc(O)c2)cc1 [RESVERATROL] | – | – | – | IC50 [4]: 11000 nM; IC50 [5]: 1400 nM; Ki [6]: 750 nM; IC50 [7]: 23000 nM
3 | C[C@]12CCCCC1=CC[C@@H]1[C@@H]2CC[C@]2(C)C(=O)[C@H](F)C[C@@H]12 | – | – | – | IC50 [8]: 2500 nM; IC50 [9]: 500 nM
4 | O=c1c(O)c(-c2ccc(O)c(O)c2)oc2cc(O)cc(O)c12 [QUERCETIN] | 23 | 77 | 418 | –
5 | COc1ccc(-c2cc(=O)c3cc(OC)c4cccc(OC)c4c3[nH]2)cc1 | – | – | – | IC50 [2]: 4.1 nM
6 | COc1ccc2c(c(OC)cc3c(=O)cc(-c4ccc(F)cc4)oc32)c1OC | – | – | – | IC50 [13]: 1 nM
7 | O=c1cc(-c2ccc(O)c(O)c2)oc2cc(O)cc(O)c12 [LUTEOLIN] | 0.36 | 1.2 | 8.9 | –
8 | O=c1c(O)c(-c2ccc(O)cc2)oc2cc(O)cc(O)c12 [KAEMPFEROL] | – | 52 | – | –
9 | COc1cc2c(=O)cc(-c3cccc(Br)c3)[nH]c2c2c(OC)cccc12 | – | – | – | IC50 [2]: 3.6 nM
10 | COc1ccc2cc3[n+](cc2c1OC)CCc1cc2c(cc1-3)OCO2 [BERBERINE] | – | – | – | IC50 [14]: 94 nM; IC50 [15]: 2500 nM
11 | O=c1cc(-c2ccc(O)cc2)oc2cc(O)cc(O)c12 [APIGENIN] | – | 4.1 | – | –
12 | COc1cc(-c2oc3cc(O)cc(O)c3c(=O)c2O)ccc1O [ISORHAMNETIN] | 30.1 | 25 | 137 | –
13 | O=c1cc(-c2ccccc2)oc2cc(O)cc(O)c12 [CHRYSIN] | 0.28 | 6.2 | 0.42 | –
